In patent US20220009918A1, “Chemical Compounds” (GlaxoSmithKline Intellectual Property Development Limited, priority 2018, published 2022):

Biological target: T1, human H-PGDS (Homo sapiens, UniProt O60760)
T1 construct: Full length human H-PGDS cDNA (Invitrogen Ultimate ORF IOH13026) was amplified by PCR; 6-His (N); TEV protease cleavage site (N); made in house; host or cells: E. coli BL21 (DE3*) for H-PGDS; Sf9 insect cells (baculovirus) for COX-2
Assay: H-PGDS RapidFire high throughput mass spectrometry assay
Format: biochemical
Conditions: inhibition of conversion of PGH2 to PGD2 by H-PGDS; mean pIC50; read-out: Potency Range (mean pIC50) (converted)
Description: H-PGDS RapidFire™ High Throughput Mass Spectrometry Assay
The H-PGDS RapidFire™ mass spectrometric assay monitors conversion of prostaglandin H2 (PGH2) to prostaglandin D2 (PGD2) by haematopoietic prostaglandin D synthase (H-PGDS). In the assay format described here, the substrate (PGH2) is formed in situ by the action of cyclooxygenase-2 on arachidonic acid. This first step is set up to be fast, and generates a burst of PGH2 at ˜10 μM. The PGH2 is then further converted to PGD2 by the H-PGDS enzyme. […] Plates are then read on the RapidFire™ high throughput solid phase extraction system (Agilent) which incorporates a solid phase extraction step coupled to a triple quadrupole mass spectrometer (AB SCIEX). Relative levels of PGD2 and PGF2α, which acts as a surrogate for substrate, are measured and a percent conversion calculated. Inhibitors are characterised as compounds which lower the conversion of PGH2 to PGD2.
Full length human H-PGDS cDNA (Invitrogen Ultimate ORF IOH13026) was amplified by PCR with the addition of a 5′ 6-His tag and TEV protease cleavage site. The PCR product was digested with NdeI and XhoI and ligated into pET22b+ (Merck Novagen®). Expression was carried out in E. coli strain BL21 (DE3*) using auto-induction Overnight Express™ Instant TB medium (Merck Novagen®) supplemented with 1% glycerol. The culture was first grown at 37° C. and the temperature was reduced to 25° C. when OD600 reached 2.0. Cells were harvested by centrifugation after a further 18 hours. 10 g of E. coli cell pellet was suspended to a total volume of 80 mL in lysis buffer (20 mM Tris-Cl pH 7.5, 300 mM NaCl, 20 mM imidazole, 5 mM p-mercaptoethanol, 10% glycerol). 1 mg/mL protease inhibitors (Protease Inhibitor Cocktail Set III, Merck Calbiochem®) and 1 mg/mL lysozyme were added to the cell suspension. The suspension was then sonicated for 5 min (UltraSonic Processor VCX 750, Cole-Parmer Instrument Co.) with a micro probe (50% amplitude, 10 sec on/off) and then centrifuged at 100,000 g for 90 minutes (at 4° C.). The supernatant was loaded onto a Ni-NTA HiTrap column (5 mL, GE Healthcare, pre-equilibrated in lysis buffer). The column was washed with 10 column volumes of lysis buffer and eluted with lysis buffer containing 500 mM imidazole. The pooled protein peak fractions were concentrated using a 10 kDa centrifugal filter at 3500 g and 4° C. (Amicon Ultra-15 centrifugal filter unit with Ultracel-10 membrane from Millipore). Further purification of the concentrated protein was carried out using gel filtration chromatography on a HiLoad 26/600 Superdex 75 preparative grade column (GE Healthcare Life Sciences) using 50 mM Tris pH 7.5, 50 mM NaCl, 1 mM dithiothreitol, 1 mM MgCl2. Fractions containing the protein were pooled, concentrated as described above, and stored at −80° C.
The full length human COX-2 gene (accession number L15326) was amplified by PCR to generate an EcoRI—HindIII fragment containing an in-frame FLAG tag. This was subcloned into pFastBac 1 (Invitrogen). The COX-2 FLAG plasmid was recombined into the baculovirus genome according to the BAC-to-BAC protocol described by Invitrogen. Transfection into Spodoptera frugiperda (Sf9) insect cells was performed using Cellfectin (Invitrogen), according to the manufacturer's protocol. Super Sf9 cells were cultured in EX420 media (SAFC Biosciences) to a density of approximately 1.5×10^6 cells/mL within a wave bioreactor. Recombinant virus was added at a Multiplicity of Infection (MOI) of 5 and the culture was allowed to continue for 3 days. Cells were harvested using a continuous feed centrifuge run at 2500 g at a rate of approximately 2 L/min with cooling. The resultant cell slurry was re-centrifuged in pots (2500 g, 20 min, 4° C.) and the cell paste was stored at −80° C. […]

T1 sequence (O60760 whole entry): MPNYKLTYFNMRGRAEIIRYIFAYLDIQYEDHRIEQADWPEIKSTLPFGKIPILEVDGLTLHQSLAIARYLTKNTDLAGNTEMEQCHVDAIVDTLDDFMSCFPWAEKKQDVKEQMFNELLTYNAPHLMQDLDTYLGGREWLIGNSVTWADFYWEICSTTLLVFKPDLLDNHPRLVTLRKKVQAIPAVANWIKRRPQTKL

`O=C(N[C@H]1CCNC1=O)c1cnc(-c2cccc(Cl)c2F)s1` [Example 8, (S)-2-(3-Chloro-2-fluorophenyl)-N-(2-oxopyrrolidin-3-yl)thiazole-5-carboxamide] and `O=C(N[C@H]1CCNC1=O)c1cnc(-c2cccc(F)c2)s1` [Example 45, (S)-2-(3-Fluorophenyl)-N-(2-oxopyrrolidin-3-yl)thiazole-5-carboxamide] fall in the same range of IC50: 10.2 to 100 nM for the first, 10.2 to 100 nM for the second.

First: O=C(N[C@H]1CCNC1=O)c1cnc(-c2cc(Cl)cc(Cl)c2)s1 [Example 9, (S)-2-(3,5-Dichlorophenyl)-N-(2-oxopyrrolidin-3-yl)thiazole-5-carboxamide]
Second: O=C(N[C@@H]1CCNC1=O)c1cnc(-c2cc(F)cc(Cl)c2)s1 [Example 26, (R)-2-(3-Chloro-5-fluorophenyl)-N-(2-oxopyrrolidin-3-yl)thiazole-5-carboxamide]
The IC50 of the first is lower: 1.02 to 10 nM for the first, 102 to 1000 nM for the second.

`O=C(N[C@H]1CCNC1=O)c1cnc(-c2cccc(C(F)F)c2)s1` [Example 10, (S)-2-(3-(Difluoromethyl)phenyl)-N-(2-oxopyrrolidin-3-yl)thiazole-5-carboxamide] and `O=C(N[C@H]1CCNC1=O)c1cnc(-c2cccc(Br)c2)s1` [Example 37, (S)-2-(3-Bromophenyl)-N-(2-oxopyrrolidin-3-yl)thiazole-5-carboxamide] fall in the same range of IC50: 10.2 to 100 nM for the first, 10.2 to 100 nM for the second.

`C[C@@H]1CNC(=O)[C@H]1NC(=O)c1cnc(-c2cc(F)cc(Cl)c2)s1` [Example 11, 2-(3-Chloro-5-fluorophenyl)-N-((3S,4R)-4-methyl-2-oxopyrrolidin-3-yl)thiazole-5-carboxamide] and `C[C@@H]1CNC(=O)[C@H]1NC(=O)c1cnc(-c2cc(F)cc(C(F)F)c2)s1` [Example 13, 2-(3-(Difluoromethyl)-5-fluorophenyl)-N-((3S,4R)-4-methyl-2-oxopyrrolidin-3-yl)thiazole-5-carboxamide] fall in the same range of IC50: 1.02 to 10 nM for the first, 1.02 to 10 nM for the second.

First: O=C(N[C@H]1CCNC1=O)c1cnc(-c2cc(F)cc(C(F)F)c2)s1 [Example 12, (S)-2-(3-(Difluoromethyl)-5-fluorophenyl)-N-(2-oxopyrrolidin-3-yl)thiazole-5-carboxamide]
Second: Cc1ccc(-c2ncc(C(=O)N[C@H]3CCNC3=O)s2)cc1 [Example 44, (S)-N-(2-Oxopyrrolidin-3-yl)-2-(p-tolyl)thiazole-5-carboxamide]
The IC50 of the first is lower: 1.02 to 10 nM for the first, 1020 to 10000 nM for the second.

First: NC(=O)CN1CC[C@H](NC(=O)c2cnc(-c3cc(F)cc(F)c3)s2)C1=O [Example 17, (S)-N-(1-(2-Amino-2-oxoethyl)-2-oxopyrrolidin-3-yl)-2-(3,5-difluorophenyl)thiazole-5-carboxamide]
Second: C[C@H]1C[C@@H](NC(=O)c2cnc(-c3cc(F)cc(Cl)c3)s2)C(=O)N1 [Example 41, 2-(3-Chloro-5-fluorophenyl)-N-((3R,5S)-5-methyl-2-oxopyrrolidin-3-yl)thiazole-5-carboxamide]
The IC50 of the first is higher: 102 to 1000 nM for the first, 10.2 to 100 nM for the second.

First: CC1(C)CNC(=O)[C@H]1NC(=O)c1cnc(-c2cc(F)cc(Cl)c2)s1 [Example 19, (S)-2-(3-Chloro-5-fluorophenyl)-N-(4,4-dimethyl-2-oxopyrrolidin-3-yl)thiazole-5-carboxamide]
Second: CCC1(CC)CNC(=O)[C@@H]1NC(=O)c1cnc(-c2cc(F)cc(Cl)c2)s1 [Example 24, (R)-2-(3-Chloro-5-fluorophenyl)-N-(4,4-diethyl-2-oxopyrrolidin-3-yl)thiazole-5-carboxamide]
The IC50 of the first is lower: 10.2 to 100 nM for the first, 1020 to 10000 nM for the second.

First: O=C(N[C@H]1CC2(CC2)NC1=O)c1cnc(-c2cc(F)cc(Cl)c2)s1 [Example 21, (S)-2-(3-Chloro-5-fluorophenyl)-N-(5-oxo-4-azaspiro[2.4]heptan-6-yl)thiazole-5-carboxamide]
Second: O=C(N[C@@H]1CC2(CC2)NC1=O)c1cnc(-c2cc(F)cc(Cl)c2)s1 [Example 22, (R)-2-(3-Chloro-5-fluorophenyl)-N-(5-oxo-4-azaspiro[2.4]heptan-6-yl)thiazole-5-carboxamide]
The IC50 of the first is lower: 1.02 to 10 nM for the first, 102 to 1000 nM for the second.

First: CCC1(CC)CNC(=O)[C@H]1NC(=O)c1cnc(-c2cc(F)cc(Cl)c2)s1 [Example 25, (S)-2-(3-Chloro-5-fluorophenyl)-N-(4,4-diethyl-2-oxopyrrolidin-3-yl)thiazole-5-carboxamide]
Second: C[C@H]1[C@H](C)NC(=O)[C@@H]1NC(=O)c1cnc(-c2cc(F)cc(Cl)c2)s1 [Example 35, 2-(3-Chloro-5-fluorophenyl)-N-((3R,4S,5S)-4,5-dimethyl-2-oxopyrrolidin-3-yl)thiazole-5-carboxamide]
The IC50 of the first is lower: 10.2 to 100 nM for the first, 102 to 1000 nM for the second.

Compared with `O=C(N[C@@H]1CC2(CCC2)NC1=O)c1cnc(-c2cc(F)cc(Cl)c2)s1` [Example 28, (R)-2-(3-Chloro-5-fluorophenyl)-N-(6-oxo-5-azaspiro[3.4]octan-7-yl)thiazole-5-carboxamide], `O=C(N[C@H]1CC2(CCC2)NC1=O)c1cnc(-c2cc(F)cc(Cl)c2)s1` [Example 29, (S)-2-(3-Chloro-5-fluorophenyl)-N-(6-oxo-5-azaspiro[3.4]octan-7-yl)thiazole-5-carboxamide] is lower in IC50: 102 to 1000 nM for the first, 1.02 to 10 nM for the second.

First: Cc1nc(-c2cccc(Cl)c2)sc1C(=O)N[C@H]1CCNC1=O [Example 30, (S)-2-(3-Chlorophenyl)-4-methyl-N-(2-oxopyrrolidin-3-yl)thiazole-5-carboxamide]
Second: Cc1cccc(-c2ncc(C(=O)N[C@H]3CCNC3=O)s2)n1 [Example 46, (S)-2-(6-Methylpyridin-2-yl)-N-(2-oxopyrrolidin-3-yl)thiazole-5-carboxamide]
The IC50 of the first is lower: 10.2 to 100 nM for the first, 102 to 1000 nM for the second.

`Cc1cnn(-c2ncc(C(=O)N[C@H]3CCNC3=O)s2)c1` [Example 31, (S)-2-(4-Methyl-1H-pyrazol-1-yl)-N-(2-oxopyrrolidin-3-yl)thiazole-5-carboxamide] and `Cc1cn(-c2ncc(C(=O)N[C@H]3CCNC3=O)s2)cn1` [Example 32, (S)-2-(4-Methyl-1H-imidazol-1-yl)-N-(2-oxopyrrolidin-3-yl)thiazole-5-carboxamide] fall in the same range of IC50: 1020 to 10000 nM for the first, 1020 to 10000 nM for the second.

First: O=C(N[C@H]1CCNC1=O)c1cnc(-c2ccccc2)s1 [Example 33, (S)-N-(2-Oxopyrrolidin-3-yl)-2-phenylthiazole-5-carboxamide]
Second: O=C(N[C@H]1CCNC1=O)c1cnc(-c2ccncc2)s1 [Example 38, (S)-N-(2-Oxopyrrolidin-3-yl)-2-(pyridin-4-yl)thiazole-5-carboxamide]
The IC50 of the first is lower: 10.2 to 100 nM for the first, 1020 to 10000 nM for the second.

Compared with `C[C@H]1[C@H](NC(=O)c2cnc(-c3cc(F)cc(Cl)c3)s2)C(=O)N[C@@H]1C` [Example 36, 2-(3-Chloro-5-fluorophenyl)-N-((3S,4R,5R)-4,5-dimethyl-2-oxopyrrolidin-3-yl)thiazole-5-carboxamide], `O=C(N[C@H]1CCNC1=O)c1cnc(-c2cccnc2)s1` [Example 40, (S)-N-(2-Oxopyrrolidin-3-yl)-2-(pyridin-3-yl)thiazole-5-carboxamide] is higher in IC50: 10.2 to 100 nM for the first, 102 to 1000 nM for the second.

`O=C(N[C@H]1CCNC1=O)c1cnc(-c2ccccn2)s1` [Example 39, (S)-N-(2-Oxopyrrolidin-3-yl)-2-(pyridin-2-yl)thiazole-5-carboxamide] and `Cc1ccnc(-c2ncc(C(=O)N[C@H]3CCNC3=O)s2)n1` [Example 42, (S)-2-(4-Methylpyrimidin-2-yl)-N-(2-oxopyrrolidin-3-yl)thiazole-5-carboxamide] fall in the same range of IC50: 102 to 1000 nM for the first, 102 to 1000 nM for the second.

`N#Cc1cccc(-c2ncc(C(=O)N[C@H]3CCNC3=O)s2)c1` [Example 43, (S)-2-(3-Cyanophenyl)-N-(2-oxopyrrolidin-3-yl)thiazole-5-carboxamide] gave an IC50 of 102 to 1000 nM.
